Read-outs that look alike come from different tables or passages of the source.
Columns and labels:
[1] = in vivo; cited from earlier work
[2] = in vivo; cited from earlier work; remark: listed apart in the source
[3] = biological target: CYP 2C9 (Homo sapiens, UniProt P11712); details: cited from earlier work
[4] = daily vitamin K supplementation and INR stability in patients with very unstable INRs; format: in vivo; details: eight patients with very unstable INR on VKA
Experimental: The recommended dietary allowance for vitamin K is approximately 70 mcg. […] In addition, the administration of a VKA often requires that the patient take a half tablet on some days while other patients may require 1.5 or 2 tablets on other days. Consequently, the workable range of vitamin K per tablet is 10 mcg to 600 mcg, the preferred range is 25 mcg to 400 mcg, and the most preferred is 50 mcg to 200 mcg.
It was tested whether daily vitamin K supplementation would improve stability of the INR in patients who had very unstable INRs. […] The VKORC1 status itself was not assessed because the test was done prior to the VKORC1 gene being identified. INR values were collected for several months before and after daily vitamin K was started in eight patients with very unstable INR values.

Sequence of CYP 2C9 (P11712 whole entry): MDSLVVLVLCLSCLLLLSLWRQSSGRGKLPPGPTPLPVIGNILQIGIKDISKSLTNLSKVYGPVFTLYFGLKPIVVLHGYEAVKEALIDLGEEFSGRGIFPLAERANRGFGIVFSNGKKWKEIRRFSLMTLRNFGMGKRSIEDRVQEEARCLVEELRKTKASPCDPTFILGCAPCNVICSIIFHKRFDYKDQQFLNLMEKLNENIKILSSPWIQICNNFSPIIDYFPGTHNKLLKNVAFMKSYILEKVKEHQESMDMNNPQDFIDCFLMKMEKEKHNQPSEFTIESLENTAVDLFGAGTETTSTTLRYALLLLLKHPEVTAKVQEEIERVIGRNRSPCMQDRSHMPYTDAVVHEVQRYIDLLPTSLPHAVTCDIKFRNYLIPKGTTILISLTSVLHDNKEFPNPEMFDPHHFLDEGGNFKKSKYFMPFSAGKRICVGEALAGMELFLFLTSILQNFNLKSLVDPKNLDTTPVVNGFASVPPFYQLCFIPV

CCC(c1ccccc1)c1c(O)c2ccccc2oc1=O (racemic) [Racemic phenprocoumon, phenprocoumon]
elimination half-life [1]: approximately 156 hrs
fraction eliminated as the parent drug [2]: approximately 40%

CC(=O)C[C@H](c1ccccc1)c1c(O)c2ccccc2oc1=O (single isomer, unassigned) [R-isomer of warfarin]
metabolism by the 2C9 enzyme [3]: not metabolized by the 2C9 enzyme

CC(=O)C[C@@H](c1ccccc1)c1c(O)c2ccccc2oc1=O (single isomer, unassigned) [S-isomer of warfarin]
metabolism by the 2C9 enzyme ([3]; hepatic cytochrome P-450 2C9): almost totally metabolized by the 2C9 enzyme

vitamin K
fluctuation of INRs after starting daily vitamin K supplement [4]: fluctuated less
percent of INRs in range after versus before starting daily vitamin K ([4]; daily vitamin K supplement, INR collected several months before and after): more than doubled
